Assay results taken from US12577248B2, “Substituted [1,2,4]triazolo[1,5-a]pyrazines as spleen tyrosine kinase inhibitors” (NANJING RUIJIE PHARMA CO., LTD., priority 2020, dated 2026).

biological target: SYK kinase (Homo sapiens, UniProt P43405); assay: SYK kinase assay (HTRF KinEASE-TK); type: biochemical; conditions: class symbols, read-out: Syk inhibition IC50
Protocol: A homogeneous time-resolved fluorescence (HTRF) assay was performed to assess the potential inhibitory effect of compounds on SYK kinase. The HTRF KinEASE-TK kit (Cisbio) was used. During the step, kinase will phosphorylate the substrate, and the resulting fluorescence signal is proportional to the phosphorylation level. The assay was performed in the following steps: First, the testing compounds were diluted 1:3 in succession in DMSO. The 1× kinase buffer contained 1 volume of 5× enzymatic buffer with 4 volumes of distilled water, 5 mM MgCl2, 1 mM MnCl2, and 1 mM DTT. The assays were assembled in 384 well plates (784075, Greiner) where 10 nl of compound solutions were added into each well, and the plates were centrifuged at 1000 g for 1 min. Then, 5 μl of 2×SYK in 1× kinase buffer were added to each well. The plates were centrifuged at 1000 g for 30 s and then incubated at room temperature for 10 min. The reaction was initiated by adding […] of premixed 2×TK-substrate-biotin and ATP mixture in 1× kinase buffer to the assay plates. The plates were centrifuged at 1000 g for 30 s and incubated at room temperature for 30 min. Phosphorylation was detected by adding 5 μl of 4×Sa-XL 665 in HTRF detection buffer into each well of the assay plates. The plates were centrifuged plates at 1000 g for 30 sec, and then incubated at room temperature for 1 h. Finally, the plates were read on an Envision 2104 plate reader (PerkinElmer) and the fluorescence signal was measured at 615 nm (Cryptate) and 665 nm (XL665).
A ratio (665/615 nm) was calculated for each well. The inhibition ratio was calculated as follow: […]
IC50 was calculated by fitting % Inhibition values and log of compound concentrations to nonlinear regression (dose response−variable slope) with GraphPad 6.0.

IC50 | SMILES
0.05 to 0.5 µM | COc1cc(Nc2nc(-c3cnc4c(c3)OCC(=O)N4)cn3ncnc23)ccc1N1CCOCC1 [I30, 7-(8-((3-methoxy-4-morpholinophenyl)amino)-[1,2,4]triazolo[1,5-a]pyrazin-6-yl)-2H-pyrido[3,2-b][1,4]oxazin-3(4H)-one]
≤ 0.05 µM | COc1cc(Nc2nc(-c3ccc4cn[nH]c4c3)cn3ncnc23)ccc1N1CCN(C2CC2)CC1 [I19, N-(4-(4-cyclopropylpiperazin-1-yl)-3-methoxyphenyl)-6-(1H-indazol-6-yl)-[1,2,4]triazolo[1,5-a]pyrazin-8-amine]
> 5 µM | c1cc(N2CCOCC2)ncc1Nc1nc(-c2ccc3cn[nH]c3c2)cn2cnnc12 [I43, 6-(1H-indazol-6-yl)-N-(6-morpholinopyridin-3-yl)-[1,2,4]triazolo[4,3-a]pyrazin-8-amine]
0.05 to 0.5 µM | CC1(C)Oc2cc(-c3cn4ncnc4c(Nc4ccc(N5CCOCC5)cc4)n3)ccc2NC1=O [I27, 2,2-dimethyl-7-(8-((4-morpholinophenyl)amino)-[1,2,4]triazolo[1,5-a]pyrazin-6-yl)-2H-benzo[b][1,4]oxazin-3(4H)-one]
0.05 to 0.5 µM | CC1(C)Oc2cc(-c3cn4ncnc4c(Nc4ccc(N5CCOCC5)cc4)n3)cnc2NC1=O [I33, 2,2-dimethyl-7-(8-((4-morpholinophenyl)amino)-[1,2,4]triazolo[1,5-a]pyrazin-6-yl)-2H-pyrido[3,2-b][1,4]oxazin-3(4H)-one]
> 5 µM | Cc1cc(Nc2nc(-c3ccc4cn[nH]c4c3)cn3cnnc23)ccc1N1CCOCC1 [I42, 6-(1H-indazol-6-yl)-N-(3-methyl-4-morpholinophenyl)-[1,2,4]triazolo[4,3-a]pyrazin-8-amine]
0.5 to 5 µM | COc1cc(Nc2nc(-c3ccc4c(C)n[nH]c4c3)cn3cnnc23)ccc1N1CCOCC1 [I46, N-(3-methoxy-4-morpholinophenyl)-6-(3-methyl-1H-indazol-6-yl)-[1,2,4]triazolo[4,3-a]pyrazin-8-amine]
> 5 µM | c1cc(N2CCOCC2)ccc1Nc1nc(-c2ccc3[nH]ncc3c2)cn2cnnc12 [I65, 6-(1H-indazol-5-yl)-N-(4-morpholinophenyl)-[1,2,4]triazolo[4,3-a]pyrazin-8-amine]
≤ 0.05 µM | COc1cc(Nc2nc(-c3ccc4cn[nH]c4c3)cn3ncnc23)ccc1N1CCN(CCO)CC1 [I15, 2-(4-(4-((6-(1H-indazol-6-yl)-[1,2,4]triazolo[1,5-a]pyrazin-8-yl)amino)-2-methoxyphenyl)piperazin-1-yl)ethan-1-ol]
0.5 to 5 µM | COc1cc(Nc2nc(-c3ccc4c(C)c[nH]c4c3)cn3cnnc23)ccc1N1CCOCC1 [I47, N-(3-methoxy-4-morpholinophenyl)-6-(3-methyl-1H-indol-6-yl)-[1,2,4]triazolo[4,3-a]pyrazin-8-amine]
> 5 µM | c1nc2c(Nc3ccc(N4CCC5(COC5)C4)cc3)nc(-c3ccc4cc[nH]c4c3)cn2n1 [I64, N-(4-(2-oxa-6-azaspiro[3.4]octan-6-yl)phenyl)-6-(1H-indol-6-yl)-[1,2,4]triazolo[1,5-a]pyrazin-8-amine]
> 5 µM | Fc1n[nH]c2cc(-c3cn4cnnc4c(Nc4ccc(N5CCOCC5)cc4)n3)ccc12 [I45, 6-(3-fluoro-1H-indazol-6-yl)-N-(4-morpholinophenyl)-[1,2,4]triazolo[4,3-a]pyrazin-8-amine]
> 5 µM | Clc1cc(Nc2nc(-c3ccc4cn[nH]c4c3)cn3cnnc23)ccc1N1CCOCC1 [I41, N-(3-chloro-4-morpholinophenyl)-6-(1H-indazol-6-yl)-[1,2,4]triazolo[4,3-a]pyrazin-8-amine]
0.05 to 0.5 µM | COc1cc(Nc2nc(-c3cnc4c(c3)OC(C)(C)C(=O)N4)cn3ncnc23)ccc1N1CCOCC1 [I32, 7-(8-((3-methoxy-4-morpholinophenyl)amino)-[1,2,4]triazolo[1,5-a]pyrazin-6-yl)-2,2-dimethyl-2H-pyrido[3,2-b][1,4]oxazin-3(4H)-one]
> 5 µM | CC1(C)Oc2cc(-c3cn4ncnc4c(Nc4ccc5c(c4)OC(F)(F)O5)n3)cnc2NC1=O [I39, 7-(8-((2,2-difluorobenzo[d][1,3]dioxol-5-yl)amino)-[1,2,4]triazolo[1,5-a]pyrazin-6-yl)-2,2-dimethyl-2H-pyrido[3,2-b][1,4]oxazin-3(4H)-one]
≤ 0.05 µM | CCS(=O)(=O)N1CCN(c2ccc(Nc3nc(-c4ccc5cn[nH]c5c4)cn4ncnc34)cc2)CC1 [I14, N-(4-(4-(ethylsulfonyl)piperazin-1-yl)phenyl)-6-(1H-indazol-6-yl)-[1,2,4]triazolo[1,5-a]pyrazin-8-amine]

IC50 | SMILES
≤ 0.05 µM | CCS(=O)(=O)N1CCN(c2ccc(Nc3nc(-c4ccc5cn[nH]c5c4)cn4ncnc34)cc2OC)CC1 [I13, N-(4-(4-(ethylsulfonyl)piperazin-1-yl)-3-methoxyphenyl)-6-(1H-indazol-6-yl)-[1,2,4]triazolo[1,5-a]pyrazin-8-amine]
> 5 µM | Fc1cc(Nc2nc(-c3ccc4cn[nH]c4c3)cn3cnnc23)ccc1N1CCOCC1 [I40, N-(3-fluoro-4-morpholinophenyl)-6-(1H-indazol-6-yl)-[1,2,4]triazolo[4,3-a]pyrazin-8-amine]
> 5 µM | O=C1COc2cc(-c3cn4ncnc4c(Nc4ccc5c(c4)OC(F)(F)O5)n3)cnc2N1 [I38, 7-(8-((2,2-difluorobenzo[d][1,3]dioxol-5-yl)amino)-[1,2,4]triazolo[1,5-a]pyrazin-6-yl)-2H-pyrido[3,2-b][1,4]oxazin-3(4H)-one]
0.5 to 5 µM | c1nc2c(Nc3ccc(N4CC5CC4CN5C4COC4)c(OC4CC4)c3)nc(-c3ccc4cc[nH]c4c3)cn2n1 (centres unmarked) [I80, N-(3-cyclopropoxy-4-(5-(oxetan-3-yl)-2,5-diazabicyclo[2.2.1]heptan-2-yl)phenyl)-6-(1H-indol-6-yl)-[1,2,4]triazolo[1,5-a]pyrazin-8-amine]
0.05 to 0.5 µM | CC(C)N1C[C@@H]2C[C@@H]1CN2c1ccc(Nc2nc(-c3ccc4cn[nH]c4c3)cn3ncnc23)cc1 [I71, 6-(1H-indazol-6-yl)-N-(4-((1S,4R)-5-isopropyl-2,5-diazabicyclo[2.2.1]heptan-2-yl)phenyl)-[1,2,4]triazolo[1,5-a]pyrazin-8-amine]
> 5 µM | COc1cc(Nc2nc(-c3ccc4c(F)n[nH]c4c3)cn3cnnc23)ccc1N1CCOCC1 [I44, 6-(3-fluoro-1H-indazol-6-yl)-N-(3-methoxy-4-morpholinophenyl)-[1,2,4]triazolo[4,3-a]pyrazin-8-amine]
0.05 to 0.5 µM | NC(=O)c1cccc(-c2cn3ncnc3c(Nc3ccc(N4CCOCC4)cc3)n2)c1 [I6, 3-(8-((4-morpholinophenyl)amino)-[1,2,4]triazolo[1,5-a]pyrazin-6-yl)benzamide]
0.05 to 0.5 µM | NC(=O)c1ccc(-c2cn3ncnc3c(Nc3ccc(N4CCOCC4)cc3)n2)cc1 [I5, 4-(8-((4-morpholinophenyl)amino)-[1,2,4]triazolo[1,5-a]pyrazin-6-yl)benzamide]
> 5 µM | COc1cc(Nc2nc(-c3cnc4c(c3)OCC(=O)N4)cn3ncnc23)cc(OC)c1OC [I34, 7-(8-((3,4,5-trimethoxyphenyl)amino)-[1,2,4]triazolo[1,5-a]pyrazin-6-yl)-2H-pyrido[3,2-b][1,4]oxazin-3(4H)-one]
0.05 to 0.5 µM | O=C1COc2cc(-c3cn4ncnc4c(Nc4ccc(N5CCOCC5)cc4)n3)cnc2N1 [I31, 7-(8-((4-morpholinophenyl)amino)-[1,2,4]triazolo[1,5-a]pyrazin-6-yl)-2H-pyrido[3,2-b][1,4]oxazin-3(4H)-one]
0.5 to 5 µM | COc1cc(Nc2nc(-c3ccc4[nH]ncc4c3)cn3cnnc23)ccc1N1CCOCC1 [I67, 6-(1H-indazol-5-yl)-N-(3-methoxy-4-morpholinophenyl)-[1,2,4]triazolo[4,3-a]pyrazin-8-amine]
0.05 to 0.5 µM | FC(F)(F)Oc1cc(Nc2nc(-c3ccc4cn[nH]c4c3)cn3ncnc23)ccc1N1CCOCC1 [I20, 6-(1H-indazol-6-yl)-N-(4-morpholino-3-(trifluoromethoxy)phenyl)-[1,2,4]triazolo[1,5-a]pyrazin-8-amine]
≤ 0.05 µM | CN1CCN(c2ccc(Nc3nc(-c4ccc5cn[nH]c5c4)cn4ncnc34)cc2)CC1 [I11, 6-(1H-indazol-6-yl)-N-(4-(4-methylpiperazin-1-yl)phenyl)-[1,2,4]triazolo[1,5-a]pyrazin-8-amine]
0.05 to 0.5 µM | COc1cc(Nc2nc(-c3ccc4cn[nH]c4c3)cn3ncnc23)cc(OC)c1OC [I4, 6-(1H-indazol-6-yl)-N-(3,4,5-trimethoxyphenyl)-[1,2,4]triazolo[1,5-a]pyrazin-8-amine]
> 5 µM | COc1cc(Nc2nc(-c3cnc4c(c3)OC(C)(C)C(=O)N4)cn3ncnc23)cc(OC)c1OC [I35, 2,2-dimethyl-7-(8-((3,4,5-trimethoxyphenyl)amino)-[1,2,4]triazolo[1,5-a]pyrazin-6-yl)-2H-pyrido[3,2-b][1,4]oxazin-3(4H)-one]

same assay, conditions: given as number, read-out: Syk inhibition IC50

IC50 | SMILES
> 10 µM | c1cc(N2CCOCC2)ccc1Nc1nc(-c2ccc3cn[nH]c3c2)cn2cnnc12 [I48, 6-(1H-indazol-6-yl)-N-(4-morpholinophenyl)-[1,2,4]triazolo[4,3-a]pyrazin-8-amine]
